PMC4398638 (Bioorganic & medicinal chemistry, 2015)

Test system: WI-38 human lung fibroblasts (normal) cell line (FR−)
Assay: MTT cytotoxicity assay, WI-38 cells
Type: cell-based
Settings: normal (WI-38, FR−) cells versus FR-overexpressing cancer cells / free drug

Compound: CC(=O)O[C@@]12CO[C@@H]1C[C@H](O)[C@@]1(C)C(=O)[C@H](OC(=O)C3CC3)C3=C(C)[C@@H](OC(=O)[C@H](OC(=O)Cc4ccccc4SSC(C)CCC(=O)NCCCOCCOCCOCCCNC(=O)c4ccc(CC5CCCCCc6c5nnn6CCOCCOCCOCCNC(=O)CC[C@H](NC(=O)CC[C@H](NC(=O)c5ccc(NCc6cnc7nc(N)[nH]c(=O)c7n6)cc5)C(=O)O)C(=O)N[C@@H](CCCNC(=N)N)C(=O)O)cc4)[C@H](C=C(C)C)NC(=O)OC(C)(C)C)C[C@@](O)([C@@H](OC(=O)c4ccccc4)[C@H]21)C3(C)C (stereo partly shown) [Conjugate 1]
- decrease in cytotoxicity against normal human cells: > 1,000 fold
